Reference: ChEMBL document CHEMBL4483862, “Open-source discovery of chemical leads for next-generation chemoprotective antimalarials” (2018)

Test system: Plasmodium berghei
Experiment: Luciferase/luciferin-expressing antifolate-resistant parasites were used to infect a culture of HepG2 cells that were pre-incubated with compounds. Infected hepatocytes emit light due to the luciferase reaction. Assay results are presented as the percent inhibition of light emission compared to control. […]
Format: functional
Details: sporozoite; for IC90: read-out: LUCIFERASE INFECTION ASSAY - IC90
[1] = read-out: LUCIFERASE INFECTION ASSAY - IC50

| Structure (SMILES) | IC90 [µM] | also measured |
| --- | --- | --- |
| O=C1NC2(CCOc3ccccc32)C(=O)N1Cc1cc2ccccc2nc1Cl (stereo not drawn) | 1.37 | IC50 (HEPG2TOX_HILL_SLOPE 1.06, HEPG2TOX_R_SQUARED 0.922, PBLUC_HILL_SLOPE 24.2, PBLUC_R_SQUARED 0.349, read-out: LUCIFERASE INFECTION ASSAY - IC50): 1.25 µM |
| c1ccc2c(Nc3nc(C4CC4)cs3)ncnc2c1 | > 10 | IC50 [1]: > 10 µM |
| Cn1c(C(C#N)c2nc(C#N)c(C#N)nc2Cl)nc2ccccc21 (stereo not drawn) | > 10 | IC50 (FFLUC_HILL_SLOPE 16, FFLUC_R_SQUARED 0.432, read-out: LUCIFERASE INFECTION ASSAY - IC50): > 10 µM |
| COCCn1c(SC(C)C(=O)NCC2CCCO2)nc2scc(-c3ccc(F)cc3)c2c1=O (stereo not drawn) | > 10 | IC50 [1]: > 10 µM |
| Cc1nc2ccccc2c(C)c1CC(=O)NCc1coc(-c2cccs2)n1 | > 10 | IC50 [1]: > 10 µM |
| O=C(Nc1cccc(Cl)c1)C1=COC2=NC(=O)N(Cc3ccccc3)CCN12 | > 10 | IC50 (HEPG2TOX_HILL_SLOPE 1.91, HEPG2TOX_R_SQUARED 0.961, read-out: LUCIFERASE INFECTION ASSAY - IC50): > 10 µM |
| Cc1ccc(Cn2ncc3c(C(=O)N4CCN(c5ncccn5)CC4)cc(C)nc32)cc1 | > 10 | IC50 (HEPG2TOX_HILL_SLOPE 0.12, HEPG2TOX_R_SQUARED 0.204, PBLUC_HILL_SLOPE 1.61, PBLUC_R_SQUARED 0.516, read-out: LUCIFERASE INFECTION ASSAY - IC50): 8.29 µM |
| Cc1cccc(Nc2ncc(C(=O)c3cccc(-c4ccncc4)c3)[nH]2)c1 | 2.02 | IC50 (HEPG2TOX_HILL_SLOPE 1.98, HEPG2TOX_R_SQUARED 0.759, PBLUC_HILL_SLOPE 4.11, PBLUC_R_SQUARED 0.608, read-out: LUCIFERASE INFECTION ASSAY - IC50): 1.18 µM |
| Cn1c(CNC(=O)c2ccc(Cl)cc2)nc2ccccc21 | > 11 | IC50 [1]: > 11 µM |
| O=C(Nc1ccc(N2CCOCC2)cn1)c1ccccc1 | > 10 |  |
| CC(=O)c1c(C)[nH]c(C(=O)OCC(=O)NC2CCCc3ccccc32)c1C (stereo not drawn) | > 10 | IC50 (HEPG2TOX_HILL_SLOPE 1.17, HEPG2TOX_R_SQUARED 0.444, read-out: LUCIFERASE INFECTION ASSAY - IC50): > 10 µM |
| O=C(CCn1ccnn1)Nc1ccc(Sc2ccc(Br)cc2)cc1 | > 10 | IC50 (HEPG2TOX_HILL_SLOPE 6.85, HEPG2TOX_R_SQUARED 0.647, PBLUC_HILL_SLOPE 1.94, PBLUC_R_SQUARED 0.683, read-out: LUCIFERASE INFECTION ASSAY - IC50): 6.08 µM |
| OC(CNC1CCN(Cc2ccccc2)CC1)COc1ccc(OC(F)(F)F)cc1 (stereo not drawn) | > 7.77 | IC50 (PBLUC_HILL_SLOPE 0.955, PBLUC_R_SQUARED 0.217, read-out: LUCIFERASE INFECTION ASSAY - IC50): > 7.77 µM |
| NS(=O)(=O)c1ccc(CCNC(=O)COc2ccccc2Cc2ccccc2)cc1 | 9.31 | IC50 (PBLUC_HILL_SLOPE 4.18, PBLUC_R_SQUARED 0.0848, read-out: LUCIFERASE INFECTION ASSAY - IC50): 5.51 µM |
| c1cncc(CCNc2nccn3c(-c4ccc5ccccc5c4)cnc23)c1 | 5.14 | IC50 (HEPG2TOX_HILL_SLOPE 2.6, HEPG2TOX_R_SQUARED 0.953, PBLUC_HILL_SLOPE 75.6, PBLUC_R_SQUARED 0.403, read-out: LUCIFERASE INFECTION ASSAY - IC50): 4.99 µM |
| Brc1ccc(-c2cc(-c3ccccc3)cc(-c3ccccc3)n2)cc1 | > 8.54 | IC50 [1]: > 8.54 µM |
| CC(C)(C)c1cc(C(=O)NNC(=O)c2ccc(C(F)(F)F)cc2)n(Cc2ccccc2)n1 | > 7.42 | IC50 [1]: > 7.42 µM |
| Cc1nn(-c2ccccc2)c(Cl)c1C(=O)N1CCN(C(c2ccccc2)c2ccccc2)CC1 | > 10 | IC50 [1]: > 10 µM |
| O=C(Cn1ncc(Cl)c(Cl)c1=O)N1N=C(c2ccco2)CC1c1cccs1 (stereo not drawn) | > 10 | IC50 (FFLUC_HILL_SLOPE 1.67, FFLUC_R_SQUARED 0.501, PBLUC_HILL_SLOPE 2.36, PBLUC_R_SQUARED 0.757, read-out: LUCIFERASE INFECTION ASSAY - IC50): 4.46 µM |
| C1=C(c2c[nH]c3ncccc23)CCN(c2ncnc3n[nH]cc23)C1 | > 10 | IC50 (HEPG2TOX_HILL_SLOPE 0.924, HEPG2TOX_R_SQUARED 0.995, PBLUC_HILL_SLOPE 2.5, PBLUC_R_SQUARED 0.123, read-out: LUCIFERASE INFECTION ASSAY - IC50): 7.5 µM |
| CC(C)Cc1ccc(C(C)NC(=O)c2ccc(CNC(N)=O)cc2)cc1 (stereo not drawn) | > 10 | IC50 (HEPG2TOX_HILL_SLOPE 1.82, HEPG2TOX_R_SQUARED 0.295, read-out: LUCIFERASE INFECTION ASSAY - IC50): > 10 µM |

| Structure (SMILES) | IC90 [µM] | also measured |
| --- | --- | --- |
| COc1ccc(C2C3CSc4ccccc4C3=NN2c2ccccc2)cc1 (stereo not drawn) | > 8.86 | IC50 (FFLUC_HILL_SLOPE 1.37, FFLUC_R_SQUARED 0.894, PBLUC_HILL_SLOPE 1.03, PBLUC_R_SQUARED 0.404, read-out: LUCIFERASE INFECTION ASSAY - IC50): 4.95 µM |
| CC1=NN(c2ccc(C)c(Cl)c2)C(=O)/C1=C\c1ccc2c(c1)OCO2 | > 9.3 | IC50 [1]: > 9.3 µM |
| Cc1ccccc1-c1ccnc2c1c(=O)[nH]c(=O)n2Cc1ccccc1 | > 9.61 | IC50 (PBLUC_HILL_SLOPE 10.5, PBLUC_R_SQUARED 0.045, read-out: LUCIFERASE INFECTION ASSAY - IC50): > 9.61 µM |
| COCCc1ccc(-c2csc(NC(=O)Cc3c[nH]c4ccccc34)n2)cc1 | > 10 | IC50 (HEPG2TOX_HILL_SLOPE 5.8, HEPG2TOX_R_SQUARED 0.844, read-out: LUCIFERASE INFECTION ASSAY - IC50): > 10 µM |
| CC(C)NC(=O)c1c(NC(=O)c2cccc(Cl)c2)nc2ccccn12 | 2.22 | IC50 (HEPG2TOX_HILL_SLOPE 1.2, HEPG2TOX_R_SQUARED 0.976, PBLUC_HILL_SLOPE 4.43, PBLUC_R_SQUARED 0.437, read-out: LUCIFERASE INFECTION ASSAY - IC50): 1.35 µM |
| O=C(NCCNc1ccc2ccccc2c1)c1cc2ccccc2nc1Cl | > 10 | IC50 (PBLUC_HILL_SLOPE 1.17, 2.29, PBLUC_R_SQUARED 0.341, 0.725, read-out: LUCIFERASE INFECTION ASSAY - IC50): 5.88 µM |
| CC(C)(C)OC(=O)Nc1ccc(C(=O)Nc2cccc(S(=O)(=O)NC3CC3)c2)cc1 | 3.66 | IC50 (HEPG2TOX_HILL_SLOPE 12, HEPG2TOX_R_SQUARED 0.663, PBLUC_HILL_SLOPE 19.5, PBLUC_R_SQUARED 0.101, read-out: LUCIFERASE INFECTION ASSAY - IC50): 3.27 µM |
| CC(C)(C)c1n[nH]c2c(-c3nc4ccccc4s3)c(N)nn2c1=O | 5.67 | IC50 (HEPG2TOX_HILL_SLOPE 1.58, HEPG2TOX_R_SQUARED 0.969, PBLUC_HILL_SLOPE 3.76, PBLUC_R_SQUARED 0.505, read-out: LUCIFERASE INFECTION ASSAY - IC50): 3.16 µM |
| CCOc1ccc(-c2n[nH]c(C)c2Oc2ccccc2Br)c(O)c1 | > 8.48 | IC50 (FFLUC_HILL_SLOPE 1.83, FFLUC_R_SQUARED 0.626, read-out: LUCIFERASE INFECTION ASSAY - IC50): > 8.48 µM |
| CC(Sc1cc(C(N)=O)c2ccccc2n1)C(=O)Nc1cccc(F)c1 (stereo not drawn) | > 10 | IC50 [1]: > 10 µM |
| c1csc(-c2cnc3sc(NCc4ccncc4)nn23)c1 | > 10.5 | IC50 [1]: > 10.5 µM |
| O=C(NC1CCN(c2ccc(S(=O)(=O)C(F)F)cc2)CC1)C1CC1 | > 10 | IC50 (HEPG2TOX_HILL_SLOPE 4.17, HEPG2TOX_R_SQUARED 0.587, PBLUC_HILL_SLOPE 17, PBLUC_R_SQUARED 0.152, read-out: LUCIFERASE INFECTION ASSAY - IC50): 8.89 µM |
| CC1CN(C(=O)c2ccc(CN3C(=O)CNC3=O)cc2)CCO1 (stereo not drawn) | > 10 | IC50 [1]: > 10 µM |
| COc1ccc(Nc2nccn3c(-c4cccc(C(=O)NCCO)c4)cnc23)cc1 | 4.59 | IC50 (FFLUC_HILL_SLOPE 1.47, FFLUC_R_SQUARED 0.89, PBLUC_HILL_SLOPE 0.68, PBLUC_R_SQUARED 0.895, read-out: LUCIFERASE INFECTION ASSAY - IC50): 0.181 µM |
| CCCc1cc(NCCN(C)C)n2ncc(-c3ccccc3)c2n1 | > 10.2 | IC50 (PBLUC_HILL_SLOPE 2.98, PBLUC_R_SQUARED 0.437, read-out: LUCIFERASE INFECTION ASSAY - IC50): 4.93 µM |
| COc1ccc(C(C)C)cc1-c1cnc(N)c(-c2ccc(O)cc2)c1 | 3.69 | IC50 (HEPG2TOX_HILL_SLOPE 2.7, HEPG2TOX_R_SQUARED 0.932, PBLUC_HILL_SLOPE 18.7, PBLUC_R_SQUARED 0.395, read-out: LUCIFERASE INFECTION ASSAY - IC50): 3.28 µM |
| Cc1nc(Sc2ncnc3scc(-c4ccc(F)cc4)c23)oc1C | > 10 | IC50 [1]: > 10 µM |
| Cc1nc2ncnn2c(N2CCc3ccccc3C2)c1Cl | 6.09 | IC50 (FFLUC_HILL_SLOPE 16.4, FFLUC_R_SQUARED 0.0433, HEPG2TOX_HILL_SLOPE 1.21, HEPG2TOX_R_SQUARED 0.855, PBLUC_HILL_SLOPE 2.02, PBLUC_R_SQUARED 0.689, read-out: LUCIFERASE INFECTION ASSAY - IC50): 2.05 µM |
| CC(NC(=O)c1cc(C2CC2)nn1-c1ccccc1)c1ccc(F)cc1F (stereo not drawn) | > 10 | IC50 (FFLUC_HILL_SLOPE 3.16, FFLUC_R_SQUARED 0.345, read-out: LUCIFERASE INFECTION ASSAY - IC50): > 10 µM |
| CC1CCN(C(=O)COC(=O)c2cc(-c3ccc(Cl)cc3)nc3ccccc23)c2ccccc2S1 (stereo not drawn) | > 10 | IC50 (PBLUC_HILL_SLOPE 0.574, PBLUC_R_SQUARED 0.62, read-out: LUCIFERASE INFECTION ASSAY - IC50): 2.73 µM |
| Cc1ccc(N(Cc2ccccc2)S(=O)(=O)c2ccc(S(C)(=O)=O)cc2)cc1 | > 10 | IC50 (PBLUC_HILL_SLOPE 2.12, PBLUC_R_SQUARED 0.413, read-out: LUCIFERASE INFECTION ASSAY - IC50): 5.72 µM |
